Measured values reported in patent publication US20250049036A1 (priority 2021, published 2025).

What was measured:
[1] = test system: Phakopsora pachyrhizi; assay: Phakopsora pachyrhizi test on soybean, preventive, greenhouse; format: in vivo; details: preventive spray on soybean, inoculated one day after treatment, read-out: control (efficacy, disease severity) compared to the untreated check
Outline: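 Greenhouse-grown young soybean plants were sprayed with compound (2% DMSO/acetone, emulsifier in water) at the stated rate. One day later they were inoculated with 2×10^5 P. pachyrhizi inoculum and held at 22-24 °C, 80-90% relative humidity for disease development.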

[2] = test system: Alternaria solani; assay: Alternaria solani test in tomato, preventive, greenhouse; format: in vivo; details: preventive spray on tomato, inoculated one day after treatment, read-out: control (efficacy, disease severity) compared to the untreated check
Protocol: The respective compound was dissolved in 2% dimethyl sulfoxide/acetone and then mixed with water containing an emulsifier to the calibrated spray volume of 30 mL. Each spray solution was poured into a spray bottle for further application.
(§1) To test the preventive activity of a compound, healthy young tomato plants, raised in the greenhouse, were sprayed with the active compound preparation at the stated application rate inside the spray cabinets using hollow cone nozzles. One day after treatment, the plants were inoculated with a spore suspension containing 0.24×10^6 Alternaria solani inoculum. The inoculated plants were then kept in a greenhouse chamber at 22-24° C. temperature and 90-95% relative humidity for disease expression.
(§2) A visual assessment of the compound's performance was carried out by rating the disease severity (0 100% scale) on treated plants 3, 7, 10 and 15 days after application. Efficacy (% control) of the compound was calculated by comparing the disease rating in the treatment with the one of the untreated control. The treated plants were also assessed for plant damage by recording symptoms like necrosis, chlorosis and stunting.

[3] = test system: Botrytis cinerea; assay: Botrytis cinerea test on tomato, preventive, greenhouse; format: in vivo; details: preventive spray on bean/chili plants (heading: tomato), inoculated one day after treatment, read-out: control (efficacy, disease severity) compared to the untreated check
[4] = test system: Corynespora cassiicola; assay: Corynespora cassiicola (leaf spot of tomato) mycelial radial growth on potato dextrose agar; format: cell-based; details: 168 h, 25° C., seven days, read-out: control compared to the untreated check
Protocol: (§3) The compounds were dissolved in 0.3% dimethyl sulfoxide and then added to potato dextrose agar medium just prior to dispensing it into petri dishes. 5 mL medium, with the compound in the desired concentration, was dispensed into 60 mm sterile petri-plates. After solidification, each plate was seeded with a 5 mm size mycelial disc taken from the periphery of an actively growing virulent culture plate. The plates were incubated in growth chambers at 25° C. temperature and 70% relative humidity for seven days and the radial growth was measured and compared to the one of the untreated control.

[5] = test system: Colletotrichum capsici; assay: Colletotrichum capsici (anthracnose) mycelial radial growth on potato dextrose agar; format: cell-based; details: Colletotrichum truncatum, 168 h, 25° C., seven days, read-out: control compared to the untreated check
Outline: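 Compounds in 0.3% DMSO were mixed into potato dextrose agar, and each plate was seeded with a 5 mm mycelial disc from an actively growing culture. Plates were incubated at 25° C and 60% relative humidity for seven days. Radial growth was compared with untreated control.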

[6] = test system: Pyricularia oryzae; assay: microbe, parasite or virus in culture; format: cell-based; details: 168 h, read-out: control compared to the untreated check
[7] = test system: Alternaria solani; assay: Alternaria solani (early blight of tomato/potato) mycelial radial growth on potato dextrose agar; format: cell-based; details: 168 h, 25° C., seven days, read-out: control compared to the untreated check
Protocol: as §3, with “60%” for “70%”

[8] = test system: Parastagonospora nodorum; assay: Parastagonospora nodorum (PARANO) spore growth inhibition in liquid medium, 96-well microtiter plate, OD 600; format: cell-based; details: spore suspension in PDB liquid medium, 18° C., 5-6 days, OD at 600, read-out: control compared to the untreated check
Outline: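 Read-out is percent growth inhibition from OD at 600 after 5-6 days at 18° C. Compounds, dissolved in DMSO, were diluted in potato dextrose broth and combined in equal volume with a 10^5 spores/ml suspension of PARANO.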

[9] = test system: Botrytis cinerea; assay: Botrytis cinerea liq. (BOTRCI) spore growth inhibition in liquid medium, 96-well microtiter plate, OD 405 nm; format: cell-based; details: spore suspension in YBA liquid medium, 22° C., 5-6 days, OD at 405 nm, read-out: control compared to the untreated check
Outline: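 Spore suspension of B. cinerea (10^4 spores/ml) in YBA liquid medium mixed 1:1 with compound diluted from DMSO. Incubated at 22° C. for 5-6 days. Growth read as OD 405 nm; percent inhibition derived from treatment, untreated-control and blank readings.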

[10] = test system: Botrytis cinerea; assay: Botrytis cinerea (gray mold) mycelial radial growth on potato dextrose agar; format: cell-based; details: 168 h, 22° C., seven days, read-out: control compared to the untreated check
Outline: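 Compounds in 0.3% DMSO were mixed into potato dextrose agar, and plates were seeded with 5 mm mycelial discs from actively growing virulent culture. After seven days at 22 °C and 90% relative humidity, radial growth was measured relative to untreated control.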

[11] = test system: Fusarium culmorum; assay: Fusarium culmorum test on wheat, preventive, greenhouse; format: in vivo; details: preventive spray on wheat, inoculated one day after treatment, read-out: control (efficacy, disease severity) compared to the untreated check
Protocol: The respective compound was dissolved in 2% dimethyl sulfoxide/acetone and then mixed with water containing an emulsifier to a calibrated spray volume of 30 mL. Each spray solution was poured into a spray bottle for further application.
as §1, with “wheat” for “tomato”, “after the” for “after”, “2×10^6 Fusarium culmorum” for “0.24×10^6 Alternaria solani”, “24°” for “22-24°”, “80-90%” for “90-95%”
as §2

[12] = test system: Venturia Inequalis; assay: Venturia inequalis (VENTIN) spore growth inhibition in liquid medium, 96-well microtiter plate, OD 600; format: cell-based; details: spore suspension in PDB liquid medium, 18° C., 15-18 days, OD at 600, read-out: control compared to the untreated check
Outline: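 Venturia inequalis spores (10^5 spores/ml suspension) were grown in potato dextrose broth with test compounds dissolved in DMSO, mixing equal volumes of compound solution and spore suspension. Plates were incubated at 18 °C for 15–18 days. Growth was read as OD600 and converted to percent inhibition.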

[13] = test system: Phytophthora infestans; assay: whole plant or invertebrate; format: in vivo, Phytophthora infestans on tomato; details: in Solanum lycopersicum, read-out: control (efficacy, disease severity) compared to the untreated check
[14] = test system: Phytophthora infestans; assay: microbe, parasite or virus in culture; format: cell-based; details: 168 h, read-out: control compared to the untreated check

CC(C)CC(C)(Cc1ccccc1)NC(=O)c1cnc2c(ccn2C)c1 (stereo not shown) [Compound 2, N-(2,4-dimethyl-1-phenylpentan-2-yl)-1-methyl-1H-pyrrolo[2,3-b]pyridine-5-carboxamide]
≥ 70%: pest or weed control at 500 ppm [1] | pest or weed control at 500 ppm [2] | pest or weed control at 500 ppm [3] | inhibition of growth at 300 ppm [4] | inhibition of growth at 300 ppm [5] | inhibition of growth at 300 ppm [6] | inhibition of growth at 300 ppm [7]

CCC(C)(Cc1ccccc1)NC(=O)c1cnc2c(ccn2C)c1 (stereo not shown) [Compound 6, 1-methyl-N-(2-methyl-1-phenylbutan-2-yl)-1H-pyrrolo[2,3-b] pyridine-5-carboxamide]
≥ 70%: inhibition of growth at 300 ppm [4] | inhibition of growth at 300 ppm [8] | inhibition of growth at 300 ppm [5] | inhibition of growth at 300 ppm [9] | inhibition of growth at 300 ppm [7]

Cn1ccc2cc(C(=O)NC(C)(C)Cc3ccc(Cl)cc3)cnc21 [Compound 43, N-(1-(4-chlorophenyl)-2-methylpropan-2-yl)-1-methyl-1H-pyrrolo[2,3-b]pyridine-5-carboxamide]
≥ 70%: pest or weed control at 500 ppm [1] | inhibition of growth at 300 ppm [4] | inhibition of growth at 300 ppm [8] | inhibition of growth at 300 ppm [6]

Cc1ccc(CC(C)(C)NC(=O)c2cnc3c(ccn3C)c2)cc1 [Compound 50, 1-methyl-N-(2-methyl-1-(p-tolyl)propan-2-yl)-1H-pyrrolo[2,3-b] pyridine-5-carboxamide]
≥ 70%: pest or weed control at 500 ppm [1] | inhibition of growth at 300 ppm [10] | inhibition of growth at 300 ppm [8] | inhibition of growth at 300 ppm [5] | inhibition of growth at 300 ppm [6] | inhibition of growth at 300 ppm [9] | inhibition of growth at 300 ppm [7] | pest or weed control at 500 ppm [11]

CC(c1ccccc1F)C(C)(C)NC(=O)c1cnc2c(c1)c(Br)cn2C (stereo not shown) [Compound 63, 3-bromo-N-(3-(2-fluorophenyl)-2-methylbutan-2-yl)-1-methyl-1H-pyrrolo[2,3-b]pyridine-5-carboxamide]
≥ 70%: pest or weed control at 500 ppm [1] | pest or weed control at 500 ppm [3] | inhibition of growth at 300 ppm [10] | inhibition of growth at 300 ppm [12] | pest or weed control at 500 ppm [13] | inhibition of growth at 300 ppm [8] | inhibition of growth at 300 ppm [6] | inhibition of growth at 300 ppm [9] | pest or weed control at 500 ppm [11]

CC(C)(Cc1ccccc1)NC(=O)c1cnc2c(c1)CCC2 [Compound 67, N-(2-methyl-1-phenylpropan-2-yl)-6,7-dihydro-5H-cyclopenta[b]pyridine-3-carboxamide]
≥ 70%: pest or weed control at 500 ppm [1] | pest or weed control at 500 ppm [3] | inhibition of growth at 300 ppm [10] | inhibition of growth at 300 ppm [12] | pest or weed control at 500 ppm [13] | inhibition of growth at 300 ppm [8] | inhibition of growth at 300 ppm [9] | pest or weed control at 500 ppm [11]

CC(C)CC(C)(Cc1ccccc1)NC(=O)c1cnc2c(c1)OCCN2C (stereo not shown) [Compound 81, N-(2,4-dimethyl-1-phenylpentan-2-yl)-4-methyl-3,4-dihydro-2H-pyrido[3,2-b] [1,4]oxazine-7-carboxamide]
≥ 70%: pest or weed control at 500 ppm [3] | inhibition of growth at 300 ppm [12] | pest or weed control at 500 ppm [13] | inhibition of growth at 300 ppm [8] | inhibition of growth at 300 ppm [5] | inhibition of growth at 300 ppm [6] | pest or weed control at 500 ppm [11]

Cc1cc2cc(C(=O)NC(C)(C)Cc3ccccc3)cnc2n1C [Compound 99, 1,2-dimethyl-N-(2-methyl-1-phenylpropan-2-yl)-1H-pyrrolo[2,3-b] pyridine-5-carboxamide]
≥ 70%: pest or weed control at 500 ppm [1] | inhibition of growth at 300 ppm [8] | inhibition of growth at 300 ppm [5] | inhibition of growth at 300 ppm [6] | inhibition of growth at 300 ppm [7] | pest or weed control at 500 ppm [11]

CC(C)(C)NC(=O)c1cnc2ccsc2c1 [Compound 107, N-(tert-butyl)thieno[3,2-b] pyridine-6-carboxamide]
≥ 70%: pest or weed control at 500 ppm [1] | inhibition of growth at 300 ppm [4] | inhibition of growth at 300 ppm [12]

CC(C)(NC(=O)c1cnc2ccsc2c1)C(F)(F)F [Compound 109, N-(1,1,1-trifluoro-2-methylpropan-2-yl)thieno[3,2-b] pyridine-6-carboxamide]
≥ 70%: inhibition of growth at 300 ppm [14] | inhibition of growth at 300 ppm [10] | inhibition of growth at 300 ppm [4] | inhibition of growth at 300 ppm [8] | inhibition of growth at 300 ppm [6] | inhibition of growth at 300 ppm [9] | inhibition of growth at 300 ppm [7]

C=C(C)CC(C)(COc1ccc(F)cc1)NC(=O)c1cnc2c(ccn2C)c1 (stereo not shown) [Compound 121, N-(1-(4-fluorophenoxy)-2,4-dimethylpent-4-en-2-yl)-1-methyl-1H-pyrrolo[2,3-b]pyridine-5-carboxamide]
≥ 70%: inhibition of growth at 300 ppm [4] | inhibition of growth at 300 ppm [5] | pest or weed control at 500 ppm [11]

Cc1cc(F)ccc1C(=O)OCC(C)(C)NC(=O)c1cnc2c(ccn2C)c1 [Compound 125, 2-methyl-2-(1-methyl-1H-pyrrolo[2,3-b]pyridine-5-carboxamido)propyl 4-fluoro-2-methylbenzoate]
≥ 70%: pest or weed control at 500 ppm [1] | pest or weed control at 500 ppm [3] | inhibition of growth at 300 ppm [4]

C=C(C)CC(C)(Cc1ccccc1F)NC(=O)c1cnc2c(ccn2C)c1 (stereo not shown) [Compound 127, N-(1-(2-fluorophenyl)-2,4-dimethylpent-4-en-2-yl)-1-methyl-1H-pyrrolo[2,3-b]pyridine-5-carboxamide]
≥ 70%: pest or weed control at 500 ppm [1] | pest or weed control at 500 ppm [2] | inhibition of growth at 300 ppm [4] | inhibition of growth at 300 ppm [12] | inhibition of growth at 300 ppm [5]

C=C(C)CC(C)(Cc1ccccc1F)NC(=O)c1cnc2ccsc2c1 (stereo not shown) [Compound 129, N-(1-(2-fluorophenyl)-2,4-dimethylpent-4-en-2-yl)thieno[3,2-b] pyridine-6-carboxamide]
≥ 70%: pest or weed control at 500 ppm [1] | inhibition of growth at 300 ppm [4] | inhibition of growth at 300 ppm [5] | inhibition of growth at 300 ppm [7]
